# From ChEMBL document CHEMBL3867474, “Discovery of novel pyrrolidineoxy-substituted heteroaromatics as potent and selective PI3K delta inhibitors with improved physicochemical properties” (Bioorg Med Chem Lett, 2016)
# Tests used:
# Rat1 = assay: Selectivity ratio of IC50 for PI3K-delta in rat whole blood to IC50 for myristoylated PI3K-delta (unknown origin) overexpressed in Rat1 cells; assay type: cell-based
# [1] = molecular target: T1, Phosphatidylinositol 4,5-bisphosphate 3-kinase catalytic subunit delta isoform (Homo sapiens, UniProt O00329); assay: Inhibition of PI3K-delta (unknown origin) by KinaseGlo assay
# T1 sequence (O00329 whole entry): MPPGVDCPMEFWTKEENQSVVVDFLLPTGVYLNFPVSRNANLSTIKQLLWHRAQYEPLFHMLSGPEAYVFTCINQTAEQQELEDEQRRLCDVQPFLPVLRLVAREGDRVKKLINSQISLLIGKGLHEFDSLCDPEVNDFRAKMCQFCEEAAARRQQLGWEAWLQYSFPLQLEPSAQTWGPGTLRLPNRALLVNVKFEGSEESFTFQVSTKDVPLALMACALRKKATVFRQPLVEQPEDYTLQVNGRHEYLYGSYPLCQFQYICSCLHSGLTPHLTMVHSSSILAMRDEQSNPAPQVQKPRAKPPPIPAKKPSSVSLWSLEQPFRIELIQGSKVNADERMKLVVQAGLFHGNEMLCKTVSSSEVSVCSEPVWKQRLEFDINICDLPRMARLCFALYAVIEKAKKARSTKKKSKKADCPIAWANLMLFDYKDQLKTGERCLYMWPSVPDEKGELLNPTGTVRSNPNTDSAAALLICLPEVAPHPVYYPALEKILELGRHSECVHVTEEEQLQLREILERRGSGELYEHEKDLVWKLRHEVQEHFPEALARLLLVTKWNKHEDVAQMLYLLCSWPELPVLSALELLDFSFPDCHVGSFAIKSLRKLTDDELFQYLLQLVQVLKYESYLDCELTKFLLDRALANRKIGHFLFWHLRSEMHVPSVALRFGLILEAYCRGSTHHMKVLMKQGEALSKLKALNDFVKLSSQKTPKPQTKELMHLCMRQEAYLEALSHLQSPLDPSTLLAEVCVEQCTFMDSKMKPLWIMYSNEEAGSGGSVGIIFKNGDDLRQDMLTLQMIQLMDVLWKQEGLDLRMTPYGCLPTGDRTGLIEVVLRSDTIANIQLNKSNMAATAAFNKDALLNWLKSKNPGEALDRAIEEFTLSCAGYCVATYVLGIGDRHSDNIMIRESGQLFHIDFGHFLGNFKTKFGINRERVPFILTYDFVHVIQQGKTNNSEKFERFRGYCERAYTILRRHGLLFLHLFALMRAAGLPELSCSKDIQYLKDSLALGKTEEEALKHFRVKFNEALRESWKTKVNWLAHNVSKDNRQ
# [2] = molecular target: T2, Phosphatidylinositol 4,5-bisphosphate 3-kinase catalytic subunit beta isoform (Homo sapiens, UniProt P42338); assay: Inhibition of PI3K-beta (unknown origin) by KinaseGlo assay
# [3] = molecular target: T1, Phosphatidylinositol 4,5-bisphosphate 3-kinase catalytic subunit delta isoform; assay: Inhibition of myristoylated PI3K-delta (unknown origin) overexpressed in Rat1 cells assessed as inhibition of Akt phosphorylation; assay type: cell-based
# [4] = molecular target: T3, Phosphatidylinositol 4,5-bisphosphate 3-kinase catalytic subunit alpha isoform (Homo sapiens, UniProt P42336); assay: Inhibition of PI3K-alpha (unknown origin) by KinaseGlo assay
# [5] = Solubility of the compound at pH 6.8 by high-throughput equilibrium analysis; assay type: physicochemical; conditions: buffer
# [6] = molecular target: T3, Phosphatidylinositol 4,5-bisphosphate 3-kinase catalytic subunit alpha isoform; assay: Inhibition of myristoylated PI3K-alpha (unknown origin) overexpressed in Rat1 cells assessed as inhibition of Akt phosphorylation; assay type: cell-based
# [7] = molecular target: T4, Phosphatidylinositol 4,5-bisphosphate 3-kinase catalytic subunit delta isoform (Homo sapiens) (UniProt O00329); assay: Selectivity ratio of IC50 for myristoylated PI3K-delta (unknown origin) overexpressed in Rat1 cells to IC50 for PI3K-delta (unknown origin); assay type: cell-based
# T4 sequence (whole entry): T1 sequence (O00329 whole entry)
# [8] = molecular target: T2, Phosphatidylinositol 4,5-bisphosphate 3-kinase catalytic subunit beta isoform; assay: Inhibition of myristoylated PI3K-beta (unknown origin) overexpressed in Rat1 cells assessed as inhibition of Akt phosphorylation; assay type: cell-based
# [9] = molecular target: T5, Phosphatidylinositol 4,5-bisphosphate 3-kinase catalytic subunit delta isoform (Mus musculus, UniProt O35904); assay: Inhibition of PI3K-delta in mouse splenocytes assessed as inhibition anti-IgM induced CD86 expression; assay type: cell-based
# T5 sequence (O35904 whole entry): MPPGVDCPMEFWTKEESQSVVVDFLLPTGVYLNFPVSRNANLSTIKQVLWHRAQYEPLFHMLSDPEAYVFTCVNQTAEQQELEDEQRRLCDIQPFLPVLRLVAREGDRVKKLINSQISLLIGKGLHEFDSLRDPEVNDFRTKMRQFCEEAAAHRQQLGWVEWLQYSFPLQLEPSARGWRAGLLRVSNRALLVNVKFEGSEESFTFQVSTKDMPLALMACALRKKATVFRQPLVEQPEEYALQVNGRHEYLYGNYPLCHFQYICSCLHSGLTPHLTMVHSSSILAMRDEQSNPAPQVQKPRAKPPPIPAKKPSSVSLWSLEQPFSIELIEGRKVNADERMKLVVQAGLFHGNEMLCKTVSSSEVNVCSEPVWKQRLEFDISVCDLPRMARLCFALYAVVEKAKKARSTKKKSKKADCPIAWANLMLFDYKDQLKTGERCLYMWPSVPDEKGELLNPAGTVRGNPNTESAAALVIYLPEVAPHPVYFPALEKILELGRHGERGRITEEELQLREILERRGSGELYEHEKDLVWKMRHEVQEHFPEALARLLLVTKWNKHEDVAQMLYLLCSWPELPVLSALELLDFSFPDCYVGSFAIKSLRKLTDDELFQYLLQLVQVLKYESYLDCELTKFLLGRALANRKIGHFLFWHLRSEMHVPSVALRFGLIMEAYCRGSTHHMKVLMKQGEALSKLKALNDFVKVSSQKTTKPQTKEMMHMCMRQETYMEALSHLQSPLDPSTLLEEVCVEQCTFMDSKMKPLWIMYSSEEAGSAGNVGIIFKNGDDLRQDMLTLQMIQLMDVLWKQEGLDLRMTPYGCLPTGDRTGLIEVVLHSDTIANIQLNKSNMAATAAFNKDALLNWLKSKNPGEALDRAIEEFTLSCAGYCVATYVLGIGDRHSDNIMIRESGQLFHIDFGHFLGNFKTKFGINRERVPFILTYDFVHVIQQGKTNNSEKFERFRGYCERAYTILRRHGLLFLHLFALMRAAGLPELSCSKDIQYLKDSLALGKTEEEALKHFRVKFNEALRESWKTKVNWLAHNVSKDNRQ
# [10] = molecular target: Phosphatidylinositol 4,5-bisphosphate 3-kinase catalytic subunit gamma isoform (Homo sapiens, UniProt P48736); assay: Inhibition of PI3K-gamma (unknown origin) by KinaseGlo assay
# [11] = Lipophilicity, log P of the compound by high-throughput assay; assay type: physicochemical; conditions: octanol/water
# [12] = Inhibition of PI3K-delta in rat whole blood assessed as inhibition of anti-IgM/IL4 induced CD86 expression; assay type: tissue-based
# T2 sequence (P42338 whole entry, canonical isoform): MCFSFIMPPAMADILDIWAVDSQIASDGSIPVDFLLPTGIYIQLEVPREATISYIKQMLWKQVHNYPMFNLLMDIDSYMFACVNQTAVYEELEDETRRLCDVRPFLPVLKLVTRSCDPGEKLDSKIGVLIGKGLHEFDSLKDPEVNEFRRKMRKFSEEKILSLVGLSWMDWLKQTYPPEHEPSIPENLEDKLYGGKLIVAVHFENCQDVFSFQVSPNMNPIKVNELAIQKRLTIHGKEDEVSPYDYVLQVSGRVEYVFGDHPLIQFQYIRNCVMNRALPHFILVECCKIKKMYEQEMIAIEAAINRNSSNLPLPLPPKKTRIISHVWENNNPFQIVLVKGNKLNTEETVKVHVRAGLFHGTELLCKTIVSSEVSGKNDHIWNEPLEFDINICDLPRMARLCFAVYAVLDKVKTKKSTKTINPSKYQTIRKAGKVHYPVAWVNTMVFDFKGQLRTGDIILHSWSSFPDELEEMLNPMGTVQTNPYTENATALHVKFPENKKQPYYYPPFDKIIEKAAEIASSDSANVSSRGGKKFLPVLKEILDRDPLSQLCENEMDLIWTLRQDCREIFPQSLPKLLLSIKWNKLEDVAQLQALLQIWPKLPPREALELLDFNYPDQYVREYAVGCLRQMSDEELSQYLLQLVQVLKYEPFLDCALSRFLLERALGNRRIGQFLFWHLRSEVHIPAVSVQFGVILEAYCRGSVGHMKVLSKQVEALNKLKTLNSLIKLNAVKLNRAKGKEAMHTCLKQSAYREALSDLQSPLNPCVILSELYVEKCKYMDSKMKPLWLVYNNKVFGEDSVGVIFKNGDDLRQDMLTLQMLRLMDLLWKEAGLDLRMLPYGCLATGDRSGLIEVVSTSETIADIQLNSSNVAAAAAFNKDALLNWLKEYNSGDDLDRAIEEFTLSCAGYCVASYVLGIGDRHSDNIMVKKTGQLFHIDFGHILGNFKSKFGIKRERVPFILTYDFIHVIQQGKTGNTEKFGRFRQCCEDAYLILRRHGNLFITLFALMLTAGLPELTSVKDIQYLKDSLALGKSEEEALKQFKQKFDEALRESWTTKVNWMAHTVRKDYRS
# Sequence of Phosphatidylinositol 4,5-bisphosphate 3-kinase catalytic subunit gamma isoform (P48736 whole entry, canonical isoform): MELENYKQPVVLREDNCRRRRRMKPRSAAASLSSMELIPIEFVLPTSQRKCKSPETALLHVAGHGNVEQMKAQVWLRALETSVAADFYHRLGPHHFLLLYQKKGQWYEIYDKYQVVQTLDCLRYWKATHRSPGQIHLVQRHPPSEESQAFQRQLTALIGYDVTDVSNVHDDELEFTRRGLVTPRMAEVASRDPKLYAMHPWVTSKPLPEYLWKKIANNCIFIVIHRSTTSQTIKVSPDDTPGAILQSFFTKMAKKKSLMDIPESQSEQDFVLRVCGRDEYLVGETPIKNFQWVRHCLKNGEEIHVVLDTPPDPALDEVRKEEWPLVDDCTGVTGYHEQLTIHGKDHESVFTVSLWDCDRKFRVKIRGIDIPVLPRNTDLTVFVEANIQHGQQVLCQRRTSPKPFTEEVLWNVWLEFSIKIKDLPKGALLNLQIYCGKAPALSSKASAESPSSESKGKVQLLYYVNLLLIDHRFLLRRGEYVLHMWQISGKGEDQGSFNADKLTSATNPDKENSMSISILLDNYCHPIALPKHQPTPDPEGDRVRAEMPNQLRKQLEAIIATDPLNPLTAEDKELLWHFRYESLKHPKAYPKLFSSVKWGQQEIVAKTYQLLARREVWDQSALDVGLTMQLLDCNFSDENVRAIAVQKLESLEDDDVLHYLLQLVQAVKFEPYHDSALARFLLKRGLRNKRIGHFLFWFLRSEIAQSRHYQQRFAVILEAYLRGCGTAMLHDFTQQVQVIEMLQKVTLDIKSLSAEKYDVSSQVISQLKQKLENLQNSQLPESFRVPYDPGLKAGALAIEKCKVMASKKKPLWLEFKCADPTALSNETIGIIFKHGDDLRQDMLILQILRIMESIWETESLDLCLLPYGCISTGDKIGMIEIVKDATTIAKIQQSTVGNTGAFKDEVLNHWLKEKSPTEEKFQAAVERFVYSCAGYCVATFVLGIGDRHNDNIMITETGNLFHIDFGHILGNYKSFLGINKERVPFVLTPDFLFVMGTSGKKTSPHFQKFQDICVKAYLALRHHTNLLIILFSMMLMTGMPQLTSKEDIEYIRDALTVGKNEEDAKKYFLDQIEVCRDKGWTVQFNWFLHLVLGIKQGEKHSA
# T3 sequence (P42336 whole entry, canonical isoform): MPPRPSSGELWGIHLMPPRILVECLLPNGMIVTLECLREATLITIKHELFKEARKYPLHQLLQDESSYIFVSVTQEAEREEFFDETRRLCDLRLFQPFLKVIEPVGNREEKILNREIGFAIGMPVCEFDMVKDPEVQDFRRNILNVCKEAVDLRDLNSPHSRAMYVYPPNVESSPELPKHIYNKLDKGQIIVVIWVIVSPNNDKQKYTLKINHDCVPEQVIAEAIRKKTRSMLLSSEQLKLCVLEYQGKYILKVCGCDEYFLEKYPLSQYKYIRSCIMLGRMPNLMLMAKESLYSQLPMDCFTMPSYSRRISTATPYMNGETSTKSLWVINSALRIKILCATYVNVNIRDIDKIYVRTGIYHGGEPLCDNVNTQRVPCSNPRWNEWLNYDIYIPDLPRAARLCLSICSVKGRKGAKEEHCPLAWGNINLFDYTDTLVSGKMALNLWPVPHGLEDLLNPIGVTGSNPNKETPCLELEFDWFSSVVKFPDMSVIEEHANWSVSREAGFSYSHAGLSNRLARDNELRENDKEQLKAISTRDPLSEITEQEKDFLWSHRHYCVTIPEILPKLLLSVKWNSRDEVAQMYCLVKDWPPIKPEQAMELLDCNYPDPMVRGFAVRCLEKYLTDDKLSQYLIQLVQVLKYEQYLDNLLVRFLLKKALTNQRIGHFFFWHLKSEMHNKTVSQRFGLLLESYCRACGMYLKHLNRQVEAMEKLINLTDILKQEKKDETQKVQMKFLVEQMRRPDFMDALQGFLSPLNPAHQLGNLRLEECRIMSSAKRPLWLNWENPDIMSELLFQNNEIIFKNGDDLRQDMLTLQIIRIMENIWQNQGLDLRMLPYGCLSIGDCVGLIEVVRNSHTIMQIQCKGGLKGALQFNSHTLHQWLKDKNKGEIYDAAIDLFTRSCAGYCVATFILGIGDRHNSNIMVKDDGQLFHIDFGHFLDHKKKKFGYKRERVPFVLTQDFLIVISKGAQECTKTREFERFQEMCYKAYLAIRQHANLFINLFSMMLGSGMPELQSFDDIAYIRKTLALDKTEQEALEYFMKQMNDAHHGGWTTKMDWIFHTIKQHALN
SMILES,Ratio IC50 (Rat1),IC50 [1] [nM],IC50 [2] [nM],IC50 [3] [nM],IC50 [4] [nM],solubility thermodynamic [5] [µM],IC50 [6] [nM],Ratio IC50 [7],IC50 [8] [nM],IC50 [9] [nM],IC50 [10] [nM],logP [11],IC50 [12] [nM]
CCC(=O)N1CC[C@H](Oc2ncnc3ccc(-c4ccc(OC)nc4)cc23)C1,11,9,669,28,218,> 1000,1030,3,1780,82,698,2.8,297
CCC(=O)N1CC[C@H](Oc2ncnc3ccc(-c4cnc(OC)c(C#N)c4)cc23)C1,,5,360,79,386,10,1380,16,1280,,978,2.6,
CCC(=O)N1CC[C@H](Oc2cnc3ccc(-c4ccc(OC)c(OC)c4)cc3n2)C1,,488,> 9100,,3230,80,,,,,3780,3.7,
COc1ccc(-c2ccc3ncnc(-c4cccc(C(=O)N5CCN(C(C)=O)CC5)c4)c3c2)cc1OC,,,,,,610,,,,,,,
CCC(=O)N1CC[C@H](Oc2ccnc3ccc(-c4ccc(OC)nc4)cc23)C1,2.3,11,655,162,220,> 1000,606,15,877,155,828,3.4,377
COc1ccc(-c2ccc3ncnc(O[C@@H]4CCN(C)C4)c3c2)cc1OC,,110,1940,,842,> 1000,,,,,2070,3.6,
CCC(=O)N1CC[C@H](Oc2ccnc3ccc(-c4ccc(OC)nc4)nc23)C1,,22,1030,646,424,> 1000,2360,29,3210,,2940,2.2,
